Laboratory results published in patent publication US11802111B2, “Cyclobutyl amide monoacylglycerol lipase modulators” (Janssen Pharmaceutica NV, priority 2020, dated 2023).

biological target: human MGL from HeLa cells (Homo sapiens (Human), UniProt Q99685); experiment: MGL in vitro activity assay ([glycerol-1,3-3H]-oleoyl glycerol hydrolysis, activated carbon filtration); format: biochemical; conditions: 300 nM [Glycerol-1,3-3H]-oleoyl glycerol, one hour
Description: The assay used to measure the in vitro activity of MGL is adapted from the assay used for another serine hydrolase (FAAH) described in Wilson et al., 2003 (A high-throughput-compatible assay for determining the activity of fatty acid amide hydrolase. Wilson S J, Lovenberg T W, Barbier A J. Anal Biochem. 2003 Jul. 15; 318(2):270-5). The assay consists of combining endogenously expressed MGL from HeLa cells with test compounds, adding [glycerol-1,3-^3H]-oleyl glycerol, incubating for one hour, and then measuring the amount of cleaved [1,3-^3H]-glycerol that passes through an activated carbon filter. The amount of cleaved, tritiated glycerol passing through the carbon filter is proportional to the activity of the MGL enzyme in a particular well/test condition.
Standard conditions for this assay combine 300 nM [Glycerol-1,3-^3H]-oleoyl glycerol with human MGL from HeLa cells and test compounds for one hour, after which the reaction is filtered through activated carbon and tritium is measured in the flow through. The test compound concentration in screening mode is 10 μM, while the highest compound concentration in IC50 assays is determined empirically. MGL is the predominant hydrolase in HeLa cells/cell homogenates.

Chain of human MGL from HeLa cells (Q99685 whole entry): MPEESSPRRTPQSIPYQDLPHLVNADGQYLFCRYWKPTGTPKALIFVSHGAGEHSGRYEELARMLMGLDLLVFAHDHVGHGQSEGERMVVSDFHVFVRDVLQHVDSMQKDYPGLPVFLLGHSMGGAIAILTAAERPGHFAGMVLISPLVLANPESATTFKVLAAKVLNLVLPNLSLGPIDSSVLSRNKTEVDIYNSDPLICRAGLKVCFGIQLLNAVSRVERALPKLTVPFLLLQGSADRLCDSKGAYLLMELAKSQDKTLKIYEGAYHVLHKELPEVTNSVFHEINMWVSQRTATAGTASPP

IC50 | Structure (SMILES)
14 nM | C[C@]1(O)C[C@@H](C(=O)N2CC3(CCC(c4ccc(F)c(C5CC5)c4)C3)C2)C1 (mixture of isomers) [Example 108, (rac)-(6-(3-Cyclopropyl-4-fluorophenyl)-2-azaspiro[3.4]octan-2-yl)((1s,3s)-3-hydroxy-3-methylcyclobutyl)methanone]
899 nM | Cn1ncc(C2CCC3(C2)CN(C(=O)[C@H]2C[C@@](C)(O)C2)C3)c1C(F)(F)F (mixture of isomers) [Example 109, (rac)-((1s,3s)-3-Hydroxy-3-methylcyclobutyl)(6-(1-methyl-5-(trifluoromethyl)-1H-pyrazol-4-yl)-2-azaspiro[3.4]octan-2-yl)methanone]
435 nM | C[C@]1(O)C[C@@H](C(=O)N2CC3(CCC(c4cccc(C(F)(F)F)n4)C3)C2)C1 (mixture of isomers) [Example 110, (rac)-((1s,3s)-3-Hydroxy-3-methylcyclobutyl)(6-(6-(trifluoromethyl)pyridin-2-yl)-2-azaspiro[3.4]octan-2-yl)methanone]
949 nM | Cn1cnc2cc(C3CCC4(C3)CN(C(=O)[C@H]3C[C@@](C)(O)C3)C4)ccc21 (mixture of isomers) [Example 111, (rac)-((1s,3s)-3-Hydroxy-3-methylcyclobutyl)(6-(1-methyl-1H-benzo[d]imidazol-5-yl)-2-azaspiro[3.4]octan-2-yl)methanone]
5530 nM | Cn1c(C2CCC3(C2)CN(C(=O)[C@H]2C[C@@](C)(O)C2)C3)nc2ccccc21 (mixture of isomers) [Example 112, (rac)-((1s,3s)-3-Hydroxy-3-methylcyclobutyl)(6-(1-methyl-1H-benzo[d]imidazol-2-yl)-2-azaspiro[3.4]octan-2-yl)methanone]
8.3 nM | CC(C)c1cc(F)cc(C2CCC3(C2)CN(C(=O)[C@H]2C[C@@](C)(O)C2)C3)c1 (mixture of isomers) [Example 125, (rac)-(6-(3-Fluoro-5-isopropylphenyl)-2-azaspiro[3.4]octan-2-yl)((1s,3s)-3-hydroxy-3-methylcyclobutyl)methanone]
7.5 nM | CC[C@]1(O)C[C@@H](C(=O)N2CC3(CCC(c4cccc(C(C)(C)C)c4)C3)C2)C1 (mixture of isomers) [Example 126, (rac)-(6-(3-(tert-Butyl)phenyl)-2-azaspiro[3.4]octan-2-yl)((1r,3s)-3-ethyl-3-hydroxycyclobutyl)methanone]
3.3 nM | C[C@]1(O)C[C@@H](C(=O)N2CCC3(CCC(c4ccc(C(F)(F)F)cc4)C3)CC2)C1 (mixture of isomers) [Example 152, (rac)-((1s,3s)-3-Hydroxy-3-methylcyclobutyl)(2-(4-(trifluoromethyl)phenyl)-8-azaspiro[4.5]decan-8-yl)methanone]
36 nM | Cc1ccc(CC2CCC3(C2)CN(C(=O)[C@H]2C[C@@](C)(O)C2)C3)cc1 (mixture of isomers) [Example 169, (rac)-((1s,3s)-3-Hydroxy-3-methylcyclobutyl)(6-(4-methylbenzyl)-2-azaspiro[3.4]octan-2-yl)methanone]
10 nM | CC(C)c1ccc(CC2CCC3(C2)CN(C(=O)[C@H]2C[C@@](C)(O)C2)C3)cc1 (mixture of isomers) [Example 170, (rac)-((1s,3s)-3-Hydroxy-3-methylcyclobutyl)(6-(4-isopropylbenzyl)-2-azaspiro[3.4]octan-2-yl)methanone]
6.8 nM | C[C@]1(O)C[C@@H](C(=O)N2CC3(CCC(Cc4ccc(C(F)(F)F)cc4)C3)C2)C1 (mixture of isomers) [Example 171, (rac)-((1s,3s)-3-Hydroxy-3-methylcyclobutyl)(6-(4-(trifluoromethyl)benzyl)-2-azaspiro[3.4]octan-2-yl)methanone]
23 nM | Cc1cccc(CC2CCC3(C2)CN(C(=O)[C@H]2C[C@@](C)(O)C2)C3)c1 (mixture of isomers) [Example 174, (rac)-((1s,3s)-3-Hydroxy-3-methylcyclobutyl)(6-(3-methylbenzyl)-2-azaspiro[3.4]octan-2-yl)methanone]
43 nM | Cc1ccccc1CC1CCC2(C1)CN(C(=O)[C@H]1C[C@@](C)(O)C1)C2 (mixture of isomers) [Example 175, (rac)-((1s,3s)-3-Hydroxy-3-methylcyclobutyl)(6-(2-methylbenzyl)-2-azaspiro[3.4]octan-2-yl)methanone]
11 nM | C[C@]1(O)C[C@@H](C(=O)N2CC3(CCC(Cc4cccc(C(F)(F)F)c4)C3)C2)C1 (mixture of isomers) [Example 176, (rac)-((1s,3s)-3-Hydroxy-3-methylcyclobutyl)(6-(3-(trifluoromethyl)benzyl)-2-azaspiro[3.4]octan-2-yl)methanone]
5.7 nM | C[C@]1(O)C[C@@H](C(=O)N2CC3(CC[C@@H](Cc4ccc(OC(F)(F)F)cc4)C3)C2)C1 (racemic) [Example 179, (rac)-((1s,3s)-3-Hydroxy-3-methylcyclobutyl)(6-(4-(trifluoromethoxy)benzyl)-2-azaspiro[3.4]octan-2-yl)methanone]
8.3 nM | C[C@]1(O)C[C@@H](C(=O)N2CC3(CC[C@@H](Cc4cccc(OC(F)(F)F)c4)C3)C2)C1 (racemic) [Example 180, (rac)-((1s,3s)-3-Hydroxy-3-methylcyclobutyl)(6-(3-(trifluoromethoxy)benzyl)-2-azaspiro[3.4]octan-2-yl)methanone]
4.6 nM | CC(C)c1cccc(C[C@@H]2CCC3(C2)CN(C(=O)[C@H]2C[C@@](C)(O)C2)C3)c1 (racemic) [Example 181, (rac)-((1s,3s)-3-Hydroxy-3-methylcyclobutyl)(6-(3-isopropylbenzyl)-2-azaspiro[3.4]octan-2-yl)methanone]
34 nM | C[C@]1(O)C[C@@H](C(=O)N2CC3(CCC(Cc4ccc(C(F)F)cc4)C3)C2)C1 (mixture of isomers) [Example 182, (rac)-(6-(4-(Difluoromethyl)benzyl)-2-azaspiro[3.4]octan-2-yl)((1s,3s)-3-hydroxy-3-methylcyclobutyl)methanone]
48 nM | C[C@]1(O)C[C@@H](C(=O)N2CC3(CCC(Cc4ccc(OC(F)F)cc4)C3)C2)C1 (mixture of isomers) [Example 183, (rac)-(6-(4-(Difluoromethoxy)benzyl)-2-azaspiro[3.4]octan-2-yl)((1s,3s)-3-hydroxy-3-methylcyclobutyl)methanone]
6.9 nM | C[C@]1(O)C[C@@H](C(=O)N2CC3(CCC(Cc4ccc(C5CC5)cc4)C3)C2)C1 (mixture of isomers) [Example 200, (rac)-(6-(4-Cyclopropylbenzyl)-2-azaspiro[3.4]octan-2-yl)((1s,3s)-3-hydroxy-3-methylcyclobutyl)methanone]
9.9 nM | C[C@]1(O)C[C@@H](C(=O)N2CC3(CCC(Cc4cccc(C5CC5)c4)C3)C2)C1 (mixture of isomers) [Example 201, (rac)-(6-(3-Cyclopropylbenzyl)-2-azaspiro[3.4]octan-2-yl)((1s,3s)-3-hydroxy-3-methylcyclobutyl)methanone]
7.8 nM | Cc1cc(C(F)(F)F)ccc1CC1CCC2(C1)CN(C(=O)[C@H]1C[C@@](C)(O)C1)C2 (mixture of isomers) [Example 203, (rac)-((1s,3s)-3-Hydroxy-3-methylcyclobutyl)(6-(2-methyl-4-(trifluoromethyl)benzyl)-2-azaspiro[3.4]octan-2-yl)methanone]
3.9 nM | Cc1cc(CC2CCC3(C2)CN(C(=O)[C@H]2C[C@@](C)(O)C2)C3)ccc1C(F)(F)F (mixture of isomers) [Example 204, (rac)-((1s,3s)-3-Hydroxy-3-methylcyclobutyl)(6-(3-methyl-4-(trifluoromethyl)benzyl)-2-azaspiro[3.4]octan-2-yl)methanone]
